The source of these data is US20230365533A1, “BICYCLOHEPTANE PYRROLIDINE OREXIN RECEPTOR AGONISTS” (MERCK SHARP & DOHME CORP., priority 2021, published 2023).

This assay deals with T1, human OX2R (Homo sapiens, UniProt O43614).
T1 construct: expressed in transfected cells; host or cells: CHO (Chinese hamster ovary) cells, grown under G418 selection
T1 sequence (O43614 1-444): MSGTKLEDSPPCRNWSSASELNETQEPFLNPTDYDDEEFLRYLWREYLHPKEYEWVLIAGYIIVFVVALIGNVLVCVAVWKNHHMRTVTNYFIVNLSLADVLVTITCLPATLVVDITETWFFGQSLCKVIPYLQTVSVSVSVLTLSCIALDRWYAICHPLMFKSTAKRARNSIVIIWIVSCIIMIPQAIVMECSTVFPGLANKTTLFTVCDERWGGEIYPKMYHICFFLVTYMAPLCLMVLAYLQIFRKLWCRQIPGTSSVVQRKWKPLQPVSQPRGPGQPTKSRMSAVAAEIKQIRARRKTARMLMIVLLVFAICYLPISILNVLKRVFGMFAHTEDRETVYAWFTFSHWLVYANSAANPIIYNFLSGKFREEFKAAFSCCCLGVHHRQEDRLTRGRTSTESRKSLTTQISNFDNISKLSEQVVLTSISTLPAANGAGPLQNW
The assay can be described thus: IPOne (IP-1) orexin receptor agonist assay in CHO cells expressing human OX2R. Type of assay: cell-based. Conditions: IPOne assay, CHO cells expressing human OX2R, 2 hours incubation; read-out: hoX2R_IP IC50. From the text: The utility of the compounds in accordance with the present invention as orexin receptor OX1R and/or OX2R agonists may be readily determined without undue experimentation by methodology well known in the art. Both the OX1R and/or OX2R G-coupled protein receptors (GPCRs) couple through the Gaq signaling pathway, which ultimately promotes calcium mobilization via inositol triphosphate (IP3) production. The half-life of IP-3 is relatively short, being rapidly metabolized to inositol monophosphate (IP-1), which can be readily detected using a commercially available assay kit (IP-One; Cisbio; cat #621PAPEC) coupled with a cell line expressing the target receptor(s) of interest. The utility of the compounds in accordance with the present invention as orexin receptor OX1R and/or OX2R agonists may be determined utilizing this assay.
In a typical experiment, the OX1 and OX2 receptor agonist activity is determined in accordance with the following general experimental method. Chinese hamster ovary (CHO) cells expressing human OX1R and/or the human OX2R were grown in Iscove's modified DMEM containing glutaMAX™, 1% G418, 100 U/mL penicillin, 100 μg/mL streptomycin and 10% heat-inactivated qualified fetal bovine serum (FBS). The OX2R cells were seeded at 10,000 cells/well/50 μL and the OX1R cells were seeded at 20,000 cells/well/50 μL into 384-well white tissue culture plates (Greiner; cat #781080). All cell/media reagents were from GIBCO-Invitrogen Corp. The seeded cell plate(s) were incubated at 37° C. with 5% CO2 and 85% humidity for 20-24 hours. On the day of the assay, assay-ready compound plates were prepared using an acoustic liquid handler (ECHO; Labcyte), which dispensed sufficient volume of test compound stock (10 mM in DMSO) or 100% DMSO to prepare 10 point, ½-log dilutions in a final volume of 202.5 nL/well in all test wells of a 384-well diamond plate (Labcyte). Following completion of assay-ready plates, importantly, the next three steps were performed with minimal delay: 1) 20 μl of 1×stimulation buffer was added to the compound plate using a Multidrop Combi (small cassette, Thermo Fisher Scientific cat #24073290); 2) culture medium was removed from the cell plate using the Bluewasher plate washer (gentle spin; BlueCatBio); 3) 14 μl of compound/stimulation buffer mixture was added to the cell plate using a Bravo liquid handler (Agilent) prior to incubating cell plates at 37° C. with 5% CO2 and 85% humidity for 1 or 2 hours (OX1R and OX2R, respectively). During this incubation, IP-one detection reagents were prepared (38:1:1 lysis buffer:D2:AB-cryptate reagents). Six μL of mixed detection reagents were added to the cell plate using a Multidrop Combi (small cassette, Thermo Fisher Scientific cat #24073290) and incubated 60 minutes at room temperature in the dark. Fluorescence signal was detected using an Envision plate reader (Perkin Elmer) [LANCE/DELFIA Dual Enh (Em: APC 665; Ex: Cy5 620)].
For each compound, data were fit to a four parameter logistic fit (ActivityBase software) and the EC50 was reported as the inflection point of the resulting curve. Percent effect for each test compound was determined as the percentage of sample raw value/mean max effect, where the mean max effect was derived from the mean raw value of 32 control wells per assay plate (using Orexin A (cat #003-30) at 1 μM for human OX1R and a reference compound at 1 uM with 100% activity previously established by comparison to Orexin A for human OX2R). The intrinsic orexin receptor agonist activity of a compound which may be used in the present invention may be determined by these assays.

Consider `COC(=O)N1[C@H](C)C[C@H](NS(=O)(=O)C2COC2)[C@@H]1CO[C@H]1CC[C@@]2(c3ncc(F)cn3)C[C@H]2C1` [Example 40, methyl (2R,3S,5R)-2-((((1S,3S,6R)-6-(5-fluoropyrimidin-2-yl)bicyclo[4.1.0]heptan-3-yl)oxy)methyl)-5-methyl-3-(oxetane-3-sulfonamido)pyrrolidine-1-carboxylate], for which the half-inhibitory concentration (IC50) stood at 4.4 nM.

Take `CCC(C)S(=O)(=O)N[C@H]1C[C@@H](C)N(C(=O)OC)[C@H]1CO[C@H]1CC[C@@]2(c3ncc(F)cn3)C[C@H]2C1` (stereo partly drawn) [Example 41, methyl (2R,3S,5R)-2-((((1S,3S,6R)-6-(5-fluoropyrimidin-2-yl)bicyclo[4.1.0]heptan-3-yl)oxy)methyl)-5-methyl-3-((1-methylpropyl)sulfonamido)pyrrolidine-1-carboxylate]: the IC50 was 8 nM.

Take `COC(=O)N1[C@H](C)C[C@H](NS(=O)(=O)C2CC2)[C@@H]1CO[C@H]1CC[C@@]2(c3ncc(F)cn3)C[C@H]2C1` [Example 42, methyl (2R,3S,5R)-3-(cyclopropanesulfonamido)-2-((((1S,3S,6R)-6-(5-fluoropyrimidin-2-yl)bicyclo[4.1.0]heptan-3-yl)oxy)methyl)-5-methylpyrrolidine-1-carboxylate]: the IC50 is 3 nM.

For `COC(=O)N1[C@H](C)C[C@H](NS(=O)(=O)N2CCC2)[C@@H]1CO[C@@H]1CC[C@]2(c3ncc(F)cn3)C[C@@H]2C1` [Example 43, methyl (2R,3S,5R)-3-(azetidine-1-sulfonamido)-2-((((1R,3R,6S)-6-(5-fluoropyrimidin-2-yl)bicyclo[4.1.0]heptan-3-yl)oxy)methyl)-5-methylpyrrolidine-1-carboxylate], the IC50 turned out to be 49.3 nM.

For `COC(=O)N1[C@H](C)C[C@H](NS(=O)(=O)C(F)(F)F)[C@@H]1CO[C@@H]1CC[C@]2(c3ncc(F)cn3)C[C@@H]2C1` [Example 44, methyl (2R,3S,5R)-2-((((1R,3R,6S)-6-(5-fluoropyrimidin-2-yl)bicyclo[4.1.0]heptan-3-yl)oxy)methyl)-5-methyl-3-((trifluoromethyl)sulfonamido)pyrrolidine-1-carboxylate], the IC50 was 17.4 nM.

As to `COC(=O)N1[C@H](C)C[C@H](NS(=O)(=O)Cc2ccccc2)[C@@H]1CO[C@@H]1CC[C@]2(c3ncc(F)cn3)C[C@@H]2C1` [Example 45, methyl (2R,3S,5R)-2-((((1R,3R,6S)-6-(5-fluoropyrimidin-2-yl)bicyclo[4.1.0]heptan-3-yl)oxy)methyl)-5-methyl-3-((phenylmethyl)sulfonamido)pyrrolidine-1-carboxylate], the IC50 stood at 173 nM.

Turning to `COC(=O)N1[C@H](C)C[C@H](NS(=O)(=O)C(C)C)[C@@H]1CO[C@@H]1CC[C@]2(c3ncc(F)cn3)C[C@@H]2C1` [Example 46, methyl (2R,3S,5R)-2-((((1R,3R,6S)-6-(5-fluoropyrimidin-2-yl)bicyclo[4.1.0]heptan-3-yl)oxy)methyl)-5-methyl-3-((1-methylethyl)sulfonamido)pyrrolidine-1-carboxylate], the IC50 worked out at 13.4 nM.

On to `CCS(=O)(=O)N[C@H]1C[C@@H](C)N(C(=O)OC)[C@H]1CO[C@@H]1CC[C@]2(c3ncc(F)cn3)C[C@@H]2C1` [Example 47, methyl (2R,3S,5R)-3-(ethylsulfonamido)-2-((((1R,3R,6S)-6-(5-fluoropyrimidin-2-yl)bicyclo[4.1.0]heptan-3-yl)oxy)methyl)-5-methylpyrrolidine-1-carboxylate], for which the IC50 amounted to 13.8 nM.

For `COC(=O)N1[C@H](C)C[C@H](NS(=O)(=O)C(F)F)[C@@H]1CO[C@H]1CC[C@@]2(c3ncc(F)cn3)C[C@H]2C1` [Example 48, methyl (2R,3S,5R)-3-((difluoromethyl)sulfonamido)-2-((((1S,3S,6R)-6-(5-fluoropyrimidin-2-yl)bicyclo[4.1.0]heptan-3-yl)oxy)methyl)-5-methylpyrrolidine-1-carboxylate], the IC50 is 1.4 nM.

For the compound `C[C@@H]1C[C@H](NS(C)(=O)=O)[C@H](CO[C@H]2CC[C@@]3(c4ncc(F)cn4)C[C@H]3C2)N1C(=O)OCC1CC(F)C1` (stereo partly drawn) [Example 49, (3-fluorocyclobutyl)methyl (2R,3S,5R)-2-((((1S,3S,6R)-6-(5-fluoropyrimidin-2-yl)bicyclo[4.1.0]heptan-3-yl)oxy)methyl)-5-methyl-3-(methylsulfonamido)pyrrolidine-1-carboxylate], the IC50 was determined as 1.1 nM.

Take `C[C@@H]1C[C@H](NS(C)(=O)=O)[C@H](CO[C@H]2CC[C@@]3(c4ncc(F)cn4)C[C@H]3C2)N1C(=O)OC[C@H]1C[C@H]1F` [Example 51, ((1R,2R)-2-fluorocyclopropyl)methyl (2R,3S,5R)-2-((((1S,3S,6R)-6-(5-fluoropyrimidin-2-yl)bicyclo[4.1.0]heptan-3-yl)oxy)methyl)-5-methyl-3-(methylsulfonamido)pyrrolidine-1-carboxylate]: the 50% inhibitory concentration (IC50) amounted to 1.3 nM.

`C[C@@H]1C[C@H](NS(C)(=O)=O)[C@H](CO[C@H]2CC[C@@]3(c4ncc(F)cn4)C[C@H]3C2)N1C(=O)OCCC(F)F` [Example 52, 3,3-difluoropropyl (2R,3S,5R)-2-((((1S,3S,6R)-6-(5-fluoropyrimidin-2-yl)bicyclo[4.1.0]heptan-3-yl)oxy)methyl)-5-methyl-3-(methylsulfonamido)pyrrolidine-1-carboxylate]: the IC50 was 1.4 nM.

With `C[C@@H]1C[C@H](NS(C)(=O)=O)[C@H](CO[C@H]2CC[C@@]3(c4ncc(F)cn4)C[C@H]3C2)N1C(=O)OCC1(F)CCC1` [Example 53, (1-fluorocyclobutyl)methyl (2R,3S,5R)-2-((((1S,3S,6R)-6-(5-fluoropyrimidin-2-yl)bicyclo[4.1.0]heptan-3-yl)oxy)methyl)-5-methyl-3-(methylsulfonamido)pyrrolidine-1-carboxylate], the IC50 is 6.1 nM.

With `C[C@@H]1C[C@H](NS(C)(=O)=O)[C@H](CO[C@H]2CC[C@@]3(c4ncc(F)cn4)C[C@H]3C2)N1C(=O)OCC(F)C1CCC1` (stereo partly drawn) [Example 54, 2-cyclobutyl-2-fluoroethyl (2R,3S,5R)-2-((((1S,3S,6R)-6-(5-fluoropyrimidin-2-yl)bicyclo[4.1.0]heptan-3-yl)oxy)methyl)-5-methyl-3-(methylsulfonamido)pyrrolidine-1-carboxylate], the IC50 came to 6 nM.

`C[C@@H]1C[C@H](NS(C)(=O)=O)[C@H](CO[C@H]2CC[C@@]3(c4ncc(F)cn4)C[C@H]3C2)N1C(=O)OC[C@H]1[C@H](C)C1(F)F` [Example 55, ((1R,3S)-2,2-difluoro-3-methylcyclopropyl)methyl (2R,3S,5R)-2-((((1S,3S,6R)-6-(5-fluoropyrimidin-2-yl)bicyclo[4.1.0]heptan-3-yl)oxy)methyl)-5-methyl-3-(methylsulfonamido)pyrrolidine-1-carboxylate]: the IC50 stood at 1 nM.

For `C[C@@H]1C[C@H](NS(C)(=O)=O)[C@H](CO[C@H]2CC[C@@]3(c4ncc(F)cn4)C[C@H]3C2)N1C(=O)O[C@H]1COC[C@@H]1F` [Example 56, (3S,4S)-4-fluorotetrahydrofuran-3-yl (2R,3S,5R)-2-((((1S,3S,6R)-6-(5-fluoropyrimidin-2-yl)bicyclo[4.1.0]heptan-3-yl)oxy)methyl)-5-methyl-3-(methylsulfonamido)pyrrolidine-1-carboxylate], the IC50 amounted to 9.2 nM.
